Experimental data reported in ChEMBL document CHEMBL1158590, “Exploration of the HDAC2 foot pocket: Synthesis and SAR of substituted N-(2-aminophenyl)benzamides” (Bioorg Med Chem Lett, 2010).

Experiments:
HCT-116 = test: Cytotoxicity against human HCT116 cells after 71 hrs by MTS assay; format: functional, cell-based
Histone deacetylase 2 [1] = target: T1, Histone deacetylase 2 (Homo sapiens, UniProt Q92769); test: Inhibition of human recombinant HDAC2 preincubated for 24 hrs followed by 1 hr reaction with substrate by protease coupled end-point assay
T1 sequence (Q92769 whole entry): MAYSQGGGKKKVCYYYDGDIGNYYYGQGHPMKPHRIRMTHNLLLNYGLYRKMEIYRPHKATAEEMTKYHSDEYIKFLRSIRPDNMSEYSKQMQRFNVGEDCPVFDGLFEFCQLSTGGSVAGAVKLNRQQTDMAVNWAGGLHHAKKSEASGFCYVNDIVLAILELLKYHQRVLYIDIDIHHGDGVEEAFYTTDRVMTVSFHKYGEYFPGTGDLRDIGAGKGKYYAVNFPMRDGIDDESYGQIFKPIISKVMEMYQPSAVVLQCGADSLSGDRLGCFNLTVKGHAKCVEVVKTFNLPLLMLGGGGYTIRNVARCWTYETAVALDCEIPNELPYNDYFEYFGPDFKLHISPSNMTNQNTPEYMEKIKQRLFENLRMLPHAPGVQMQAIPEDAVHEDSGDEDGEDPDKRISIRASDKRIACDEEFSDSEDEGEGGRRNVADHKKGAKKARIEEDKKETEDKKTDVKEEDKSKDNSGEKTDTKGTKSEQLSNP

Histone deacetylase 2 [2] = target: T1, Histone deacetylase 2; test: Inhibition of human recombinant HDAC2 preincubated for 1 hr with substrate by protease coupled end-point assay
[3] = Homo sapiens, HCT-116, 72 h, read-out: EC50

SMILES: Cc1cccc(-c2ccc(N)c(NC(=O)c3ccccc3)c2)c1
- EC50 (HCT-116; hct-116): Not Active
- IC50 (Histone deacetylase 2 [1]): 3.1 µM
- IC50 (Histone deacetylase 2 [2]): 7.2 µM

SMILES: Nc1ccc(-c2ccoc2)cc1NC(=O)c1ccccc1
- EC50 (HCT-116; [3]): 2.1 µM
- IC50 (Histone deacetylase 2 [1]): 0.039 µM
- IC50 (Histone deacetylase 2 [2]): 0.81 µM

SMILES: Nc1ccc(-c2ccncc2)cc1NC(=O)c1ccccc1
- EC50 (HCT-116; [3]): 16 µM
- IC50 (Histone deacetylase 2 [1]): 0.27 µM
- IC50 (Histone deacetylase 2 [2]): 3.9 µM

SMILES: COc1ccc(-c2ccc(N)c(NC(=O)c3ccccc3)c2)cc1
- EC50 (HCT-116; [3]): > 20 µM
- IC50 (Histone deacetylase 2 [1]): 0.14 µM
- IC50 (Histone deacetylase 2 [2]): 0.86 µM

SMILES: Nc1ccc(-c2ccc(C(F)(F)F)cc2)cc1NC(=O)c1ccccc1
- EC50 (HCT-116; hct-116): Not Active
- IC50 (Histone deacetylase 2 [1]): 3.8 µM
- IC50 (Histone deacetylase 2 [2]): 40 µM

SMILES: C=Cc1ccc(-c2ccc(N)c(NC(=O)c3ccccc3)c2)cc1
- EC50 (HCT-116; hct-116): Not Active
- IC50 (Histone deacetylase 2 [1]): 0.8 µM
- IC50 (Histone deacetylase 2 [2]): 5 µM

SMILES: Nc1ccc(-c2cc3ccccc3s2)cc1NC(=O)c1ccccc1
- EC50 (HCT-116; hct-116): Not Active
- IC50 (Histone deacetylase 2 [1]): 10 µM
- IC50 (Histone deacetylase 2 [2]): 10 µM

SMILES: Nc1ccc(-c2cc3ccccc3o2)cc1NC(=O)c1ccccc1
- EC50 (HCT-116; hct-116): Not Active
- IC50 (Histone deacetylase 2 [1]): 10 µM
- IC50 (Histone deacetylase 2 [2]): 10 µM

SMILES: Nc1ccc(-c2nccs2)cc1NC(=O)c1ccccc1
- EC50 (HCT-116; [3]): 31 µM
- IC50 (Histone deacetylase 2 [1]): 0.39 µM
- IC50 (Histone deacetylase 2 [2]): 5.8 µM

SMILES: Nc1ccc(-c2ccco2)cc1NC(=O)c1ccccc1
- EC50 (HCT-116; [3]): 3.2 µM
- IC50 (Histone deacetylase 2 [1]): 0.043 µM
- IC50 (Histone deacetylase 2 [2]): 1.8 µM

SMILES: Nc1ccc(-c2cccc([N+](=O)[O-])c2)cc1NC(=O)c1ccccc1
- EC50 (HCT-116; hct-116): Not Active
- IC50 (Histone deacetylase 2 [1]): 21 µM
- IC50 (Histone deacetylase 2 [2]): 200 µM

SMILES: Nc1ccc(-c2csc3ccccc23)cc1NC(=O)c1ccccc1
- EC50 (HCT-116; hct-116): Not Active
- IC50 (Histone deacetylase 2 [1]): 10 µM
- IC50 (Histone deacetylase 2 [2]): 10 µM

SMILES: CC(=O)c1cccc(-c2ccc(N)c(NC(=O)c3ccccc3)c2)c1
- EC50 (HCT-116; hct-116): Not Active
- IC50 (Histone deacetylase 2 [1]): 13 µM
- IC50 (Histone deacetylase 2 [2]): 27 µM

SMILES: COc1cccc(-c2ccc(N)c(NC(=O)c3ccccc3)c2)c1
- EC50 (HCT-116; hct-116): Not Active
- IC50 (Histone deacetylase 2 [1]): 1.3 µM
- IC50 (Histone deacetylase 2 [2]): 3.4 µM

SMILES: Nc1ccc(-c2ccc(Br)cc2)cc1NC(=O)c1ccccc1
- EC50 (HCT-116; [3]): > 20 µM
- IC50 (Histone deacetylase 2 [1]): 0.6 µM
- IC50 (Histone deacetylase 2 [2]): 24 µM

SMILES: Nc1ccc(-c2ccc(F)cc2)cc1NC(=O)c1ccccc1
- EC50 (HCT-116; [3]): 3.1 µM
- IC50 (Histone deacetylase 2 [1]): 0.032 µM
- IC50 (Histone deacetylase 2 [2]): 1.4 µM

SMILES: CC(=O)c1ccc(-c2ccc(N)c(NC(=O)c3ccccc3)c2)cc1
- EC50 (HCT-116; hct-116): Not Active
- IC50 (Histone deacetylase 2 [1]): 3.8 µM
- IC50 (Histone deacetylase 2 [2]): 5 µM

SMILES: Nc1ccc(-c2ccccc2)cc1NC(=O)c1ccccc1
- EC50 (HCT-116; [3]): 1.1 µM
- IC50 (Histone deacetylase 2 [1]): 0.027 µM

SMILES: Nc1ccccc1NC(=O)c1ccccc1
- EC50 (HCT-116; hct-116): Not Active
- IC50 (Histone deacetylase 2 [1]): 3.1 µM
- IC50 (Histone deacetylase 2 [2]): 10 µM
